Test results from US11413278B2, “Compounds and methods for promoting stress resistance” (priority 2015, dated 2022).

Experiments:
FOXO3 = FOXO3 siRNA knockdown: dependency for H2O2-resistance; assay type: cell-based, human; details: for FOXO3-dependency for H2O2-resistance, at 10 uM (experiment 3) - with & without H2O2 / FOXO3-dependency for H2O2-resistance (experiment 3): 10 uM; for FOXO3-dependency for H2O2-resistance (experiment 3): with & without H2O2, FOXO3 knockdown in WI-38 cells, YES = resistance reduced by at least 50%, partial = 25% to 50%
Description: For qPCR analysis, WI-38 cells were treated with small molecules (at 10 μM) (biological quadruplicates) for 24 hrs and processed for RNA isolation and reverse transcription (RT) with the Cells-to-Ct Kit (Life Technologies), following manufacturer's instructions. RT products were diluted with H2O and used for qPCR analysis on an ABI 7300 system (Life Technologies) (technical triplicates). Relative expression levels of target genes were normalized to the genes B2M, PPIA and GAPDH. To knock down the expression of FOXO3 or NRF2, WI-38 cells were transfected, using the RNAiMAX reagents (Life Technologies), with siRNA oligos (at 10 nM final concentration, 10 ml culture medium) for FOXO3 (Life Technologies) or NRF2 (Integrated DNA Technologies) on 10-cm petri dishes for 36 hrs, and then detached and aliquoted onto 96-well (for qPCR analysis) or 384-well plates (for H2O2-stress treatment). ˜24 hrs later, small molecules were introduced and incubated with cells for 24 hrs. Cells were then either processed with the Cells-to-Ct Kit to prepare RT products for qPCR analysis or subjected to H2O2 (700 μM) for 3 hrs and assayed for viability. The knockdown efficiency of FOXO3 or NRF2 was checked at 36 hrs post-transfection and at the end as well. […]
Applicants used siRNA to knock down FOXO3 expression by ˜70% in an attempt to identify whether the activation of these genes depends on activity of FOXO3 and/or NRF2. […] We used siRNA to knock down FOXO3 expression by ˜60% to 70% (FIG. 3; see data in Table 6). […] (Given the caveat that FOXO3 was not fully knocked down, partial dependency was scored when the H2O2-resistance capacity was reduced by at least 25% but less than 50% upon siRNA knockdown). At least for Gr-7A and Gr-7C, which are structurally related, the observed FOXO3-dependency for H2O2-resistance is consistent with their strong effects to induce FOXO3 target genes (Tables 1a-1f, Table 6, & Table 15), including SOD2 and GADD45A.

NRF2 = test: in vitro; assay type: cell-based, human; details: for NRF2-dependency for H2O2-resistance, at 10 uM - with H2O2, 2nd experiment: experiment 2 (2nd); for NRF2-dependency for H2O2-resistance (experiment 3): with & without H2O2, NRF2 knockdown in WI-38 cells; for NRF2-dependency for H2O2-resistance (experiment 3) / NRF2-dependency for H2O2-resistance, 2nd experiment / NRF2-dependency for H2O2-resistance, 1st experiment: YES = resistance reduced by at least 50%, partial = 25% to 50%; for NRF2-dependency for H2O2-resistance, 2nd experiment / NRF2-dependency for H2O2-resistance, 1st experiment: with H2O2, NRF2 knockdown in WI-38 cells; for Assay 17: NRF2-dependency for H2O2-resistance: YES/NO; for NRF2-dependency of H2O2-resistance (NRF2 siRNA knockdown): at least 2 of 3 independent experiments; for NRF2-dependency for H2O2-resistance, at 10 uM - with H2O2, 1st experiment: experiment 1 (1st)
mTOR = mTOR inhibition (RPS6 phosphorylation status), In-Cell Western; assay type: cell-based, human
Description: In-Cell Western assays were performed, following a standard immuno-staining protocol. Briefly, WI-38 cells were treated with small molecules for 24 hrs, and then processed and incubated with primary antibody cocktail (Cell Signaling, mouse anti-RPS, 1:25; rabbit-anti-pRPS6-(Ser-235/236), 1:100) overnight at 4° C. Next day, samples were processed and incubated with fluorophore-conjugated secondary antibodies (Cell Signaling, DyLight 680-goat anti-mouse, 1:500; DyLight 800-goat anti-rabbit, 1:1,000). Images were collected on an Odyssey Imager (LI-COR) and analyzed with the Image Studio Lite software (version 5.0.21).
Mammalian target of rapamycin (mTOR) is a crucial regulator of cell growth and metabolism and has been implicated in aging and many diseases, including cancer, diabetes and neurological diseases (Dazert and Hall, 2011; Zoncu et al., 2011). […] In addition, the anti-diabetes drug metformin (Kalender et al., 2010), as well as other AMPK activators such as 2-deoxy-D-glucose (Inoki et al., 2003) and AICAR (Shaw et al., 2004), could inhibit mTORC1. Applicants examined the effects of our molecules (at three doses, 5 μM, 10 μM and 20 μM) on the phosphorylation status of ribosomal protein S6 (RPS6), a readout of mTOR activity, to ask whether they could inhibit mTOR.
In-Cell Western assays were performed, following the same procedures to analyze DNA-damage markers. WI-38 cells were incubated with small molecules for 24 hrs, and then processed and incubated with primary antibody cocktail (mouse anti-RPS, 1:25; rabbit-anti-pRPS6, 1:100) overnight at 4° C. Next day, samples were processed and incubated with fluorophore-conjugated secondary antibodies (goat anti-mouse, 1:500; goat anti-rabbit, 1:1,000) in antibody dilution buffer. Images were collected on an Odyssey Imager (LI-COR) and analyzed with the Image Studio Lite software.

WI-38 cells = details: for PI cell-death imaging without H2O2 (indicating potential toxicity): Assay 8(k), without H2O2, at 10 uM; for Percentage of propidium iodide-positive (dead) cells under normal conditions (qualitative) / PI-positive dead cells under normal conditions: WI-38, no H2O2; for PI-positive dead cells under normal conditions: control 0.4±0.2%; for Percentage of propidium iodide-positive dead cells (no H2O2 stress treatment), at 10 uM: negative control 0.41% ± 0.23%
Description: WI-38 cells were seeded on 384-well plates for 24 hrs and then incubated with small molecules for 24 hrs. […] Images were collected on an INCell Analyzer 2000 (GE) and analyzed with the Developer software.

## CCc1ccccc1NC(=O)c1ccc([N+](=O)[O-])o1 [Gr-1C]
FOXO3; score
  I = FOXO3-dependency for H2O2-resistance: 0
FOXO3; summary score
  I = FOXO3-dependency for H2O2-resistance: 0
NRF2; score
  J = NRF2-dependency for H2O2-resistance: 0
NRF2; summary score
  J = NRF2-dependency for H2O2-resistance: 0
mTOR; 2-point score
  G = mTOR down-regulation: 0
mTOR; summary score
  G = mTOR down-regulation: 0
WI-38 cells
  PI cell-death imaging without H2O2 (indicating potential toxicity): YES
  Percentage of propidium iodide-positive (dead) cells under normal conditions (qualitative): increased the percentage
  PI-positive dead cells under normal conditions: 3.5±1.3%
  Percentage of propidium iodide-positive dead cells (no H2O2 stress treatment), at 10 uM: 3.51% ± 1.28%,

## Cc1cc(N)n(-c2ccccc2C(=O)O)n1 [Gr-6A]
FOXO3; score
  I = FOXO3-dependency for H2O2-resistance: 0
FOXO3; summary score
  I = FOXO3-dependency for H2O2-resistance: 0
NRF2; score
  J = NRF2-dependency for H2O2-resistance: 0
NRF2; summary score
  J = NRF2-dependency for H2O2-resistance: 0
mTOR; 2-point score
  G = mTOR down-regulation: 0
mTOR; summary score
  G = mTOR down-regulation: 0
WI-38 cells
  Percentage of propidium iodide-positive dead cells (no H2O2 stress treatment), at 10 uM: 0.41% ± 0.17%,

## O=C(/C=C/c1cn(-c2ccccc2)nc1-c1cccnc1)c1ccccc1 [Gr-6B]
FOXO3; score
  I = FOXO3-dependency for H2O2-resistance: 0
FOXO3; summary score
  I = FOXO3-dependency for H2O2-resistance: 0
NRF2; 10 uM
  NRF2-dependency for H2O2-resistance, at 10 uM - with H2O2, 2nd experiment: 2nd, partial.
  NRF2-dependency for H2O2-resistance, at 10 uM (experiment 3) - with & without H2O2: YES
  NRF2-dependency for H2O2-resistance (experiment 3): YES
  NRF2-dependency for H2O2-resistance, 2nd experiment: partial.
  Assay 17: NRF2-dependency for H2O2-resistance: YES
NRF2
  NRF2-dependency of H2O2-resistance (NRF2 siRNA knockdown): significantly attenuate
NRF2; score
  J = NRF2-dependency for H2O2-resistance: 1
NRF2; summary score
  J = NRF2-dependency for H2O2-resistance: 1
mTOR; 2-point score
  G = mTOR down-regulation: 0
mTOR; summary score
  G = mTOR down-regulation: 0
WI-38 cells
  Percentage of propidium iodide-positive dead cells (no H2O2 stress treatment), at 10 uM: 0.46% ± 0.25%,

## COc1ccc(/C=C2\SC(=N)N(c3nccs3)C2=O)cc1 [O21]
FOXO3
  FOXO3-dependency for H2O2-resistance, at 10 uM (experiment 3) - with & without H2O2: YES
  FOXO3-dependency for H2O2-resistance (experiment 3): YES
FOXO3; score
  I = FOXO3-dependency for H2O2-resistance: 0
FOXO3; summary score
  I = FOXO3-dependency for H2O2-resistance: 0
NRF2; 10 uM
  NRF2-dependency for H2O2-resistance, at 10 uM - with H2O2, 1st experiment: 1st, partial;
  NRF2-dependency for H2O2-resistance, at 10 uM (experiment 3) - with & without H2O2: YES
  NRF2-dependency for H2O2-resistance (experiment 3): YES
  NRF2-dependency for H2O2-resistance, 1st experiment: partial;
  Assay 17: NRF2-dependency for H2O2-resistance: YES
NRF2; score
  J = NRF2-dependency for H2O2-resistance: 1
NRF2; summary score
  J = NRF2-dependency for H2O2-resistance: 1
mTOR; 2-point score
  G = mTOR down-regulation: 0
mTOR; summary score
  G = mTOR down-regulation: 0
WI-38 cells
  PI cell-death imaging without H2O2 (indicating potential toxicity): YES
  Percentage of propidium iodide-positive (dead) cells under normal conditions (qualitative): increased the percentage
  PI-positive dead cells under normal conditions: 1.1±0.4%
  Percentage of propidium iodide-positive dead cells (no H2O2 stress treatment), at 10 uM: 1.09% ± 0.39%,

## COc1cccc(/C=C2\CN(C)C/C(=C\c3cccc(OC)c3OC)C2=O)c1OC [O23]
FOXO3
  FOXO3-dependency for H2O2-resistance, at 10 uM (experiment 3) - with & without H2O2: YES
  FOXO3-dependency for H2O2-resistance (experiment 3): YES
FOXO3; score
  I = FOXO3-dependency for H2O2-resistance: 0
FOXO3; summary score
  I = FOXO3-dependency for H2O2-resistance: 0
NRF2
  Survival of NRF2 siRNA-transfected cells in the absence of H2O2: could reduce the survival
  NRF2-dependency of H2O2-resistance (NRF2 siRNA knockdown): significantly attenuate
NRF2; 10 uM
  NRF2-dependency for H2O2-resistance, at 10 uM - with H2O2, 1st experiment: 1st, YES;
  NRF2-dependency for H2O2-resistance, at 10 uM - with H2O2, 2nd experiment: 2nd, YES.
  NRF2-dependency for H2O2-resistance, 1st experiment: YES;
  NRF2-dependency for H2O2-resistance, 2nd experiment: YES.
  Assay 17: NRF2-dependency for H2O2-resistance: YES
NRF2; human, 24 h, 10 uM
  viability of non-stressed cells, reduced by: by 40%)
NRF2; score
  J = NRF2-dependency for H2O2-resistance: 1
NRF2; summary score
  J = NRF2-dependency for H2O2-resistance: 1
mTOR; 2-point score
  G = mTOR down-regulation: 0
mTOR; summary score
  G = mTOR down-regulation: 0
WI-38 cells
  PI cell-death imaging without H2O2 (indicating potential toxicity): YES
  PI-positive dead cells under normal conditions: 2.6%±1.4%
  Percentage of propidium iodide-positive dead cells (no H2O2 stress treatment), at 10 uM: 2.61% ± 1.37%,
